According to patent publication US12351564B2, “NLRP3 modulators” (Zomagen Biosciences Ltd, priority 2019, dated 2025):

system: IL-1b; assay: Mouse BMDM IL-1b Assay; format: cell-based; settings: Macrophage; C57BL6 bone marrow derived macrophages; 200 ng/mL Ultrapure LPS-B5 3 hours, compound 30 minutes, 5 mM ATP 45 minutes; mouse IL-1b ELISA of supernatant
Procedure: Example 8: Mouse BMDM IL-1b Assay
Mouse bone marrow cells from C57BL6 tibia and femur were culture in complete Isocov's Media supplemented with 20 ng/mL MCSF (BMDM media) at a density of 50 million cells/15 cm Petri dish. Fresh media was changed every 3 days, and bone marrow derived macrophages were collected, washed, and counted on day 7. Cells were seeded into 96 well plates at a density of 5×10^4 cells per well in 100 uL of BMDM media and cultured overnight. The cells were stimulated at 37° C. with 200 ng/mL Ultrapure LPS-B5 for 3 hours before pre-diluted compounds were added. 30 minutes after compound addition, 5 mM ATP was added for the secondary stimulation for 45 minutes. After stimulation, the plates were briefly spun down, and 50 uL of supernatant was harvested from each well. ELISA for mouse IL-1b was performed with 1:10 and 1:100 diluted supernatant using pre-coated kits. IL-1b concentrations were calculated based on pre-titrated standards, and compound inhibition IC50 is generated using the Levenberg Marquardt damped lease-square method.

| IC50 [nM] | Compound |
| --- | --- |
| 100 to 1000 | CC(C)c1ccc(Cl)c(C(C)C)c1NC(=O)NS(=O)(=O)c1cc2c(o1)C1CCC(C1)C2O (centres unmarked) [Compound 25, N-((3-chloro-2,6-diisopropylphenyl)carbamoyl)-4-hydroxy-5,6,7,8-tetrahydro-4H-5,8-methanocyclohepta[b]furan-2-sulfonamide] |
| 100 to 1000 | CC(C)c1cccc(C(C)C)c1CC(=O)NS(=O)(=O)c1cc2c(o1)C1CCC(CC1)C2(C)O (centres unmarked) [Compound 38, 2-(2,6-diisopropylphenyl)-N-((4-hydroxy-4-methyl-5,6,7,8-tetrahydro-4H-5,8-ethanocyclohepta[b]furan-2-yl)sulfonyl)acetamide] |
| < 100 | CC(C)c1ccc(F)c(C(C)C)c1NC(=O)NS(=O)(=O)c1cc2c(o1)C1CCC(C1)C2(C)O (centres unmarked) [Compound 36, N-((3-fluoro-2,6-diisopropylphenyl)carbamoyl)-4-hydroxy-4-methyl-5,6,7,8-tetrahydro-4H-5,8-methanocyclohepta[b]furan-2-sulfonamide] |
| 100 to 1000 | O=C(Nc1c2c(cc3c1CCC3)CCC2)NS(=O)(=O)c1ccc2c(c1)C(O)C1CCC2CC1 (centres unmarked) [Compound 33, N-((1,2,3,5,6,7-hexahydro-s-indacen-4-yl)carbamoyl)-9-hydroxy-6,7,8,9-tetrahydro-5H-5,8-ethanobenzo[7]annulene-2-sulfonamide] |
| 100 to 1000 | O=C(Nc1c2c(cc3c1CCC3)CCC2)NS(=O)(=O)c1ccc2c(c1)/C(=N\O)C1CCC2CC1 [Compound 35, (Z)-N-((1,2,3,5,6,7-hexahydro-s-indacen-4-yl)carbamoyl)-9-(hydroxyimino)-6,7,8,9-tetrahydro-5H-5,8-ethanobenzo[7]annulene-2-sulfonamide] |
| < 100 | O=C(Nc1c2c(cc3c1CCC3)CCC2)NS(=O)(=O)c1cc2c(o1)C1CCC(CC1)C2O (centres unmarked) [Compound 22, N-((1,2,3,5,6,7-hexahydro-s-indacen-4-yl)carbamoyl)-4-hydroxy-5,6,7,8-tetrahydro-4H-5,8-ethanocyclohepta[b]furan-2-sulfonamide] |
| < 100 | O=C(Nc1c2c(cc3c1CCC3)CCC2)NS(=O)(=O)c1ccc2c(c1)C(=O)C1CCC2CC1 [Compound 32, N-((1,2,3,5,6,7-hexahydro-s-indacen-4-yl)carbamoyl)-9-oxo-6,7,8,9-tetrahydro-5H-5,8-ethanobenzo[7]annulene-2-sulfonamide] |
| 1000 to 10000 | CC(C)c1cccc(C(C)C)c1CC(=O)NS(=O)(=O)c1cc2c(o1)C1CCC(C1)C2=O (centres unmarked) [Compound 14, 2-(2,6-diisopropylphenyl)-N-((4-oxo-5,6,7,8-tetrahydro-4H-5,8-methanocyclohepta[b]furan-2-yl)sulfonyl)acetamide] |
| < 100 | CC1(O)c2cc(S(=O)(=O)NC(=O)Nc3c4c(cc5c3CCC5)CCC4)sc2C2CCC1CC2 (centres unmarked) [Compound 45, N-((1,2,3,5,6,7-hexahydro-s-indacen-4-yl)carbamoyl)-4-hydroxy-4-methyl-5,6,7,8-tetrahydro-4H-5,8-ethanocyclohepta[b]thiophene-2-sulfonamide] |
| 100 to 1000 | C[C@@]1(O)c2cc(S(=O)(=O)NC(=O)Nc3c4c(cc5c3CCC5)CCC4)oc2[C@H]2CC[C@@H]1C2 [Compound 39, (4S,5R,8S)-N-((1,2,3,5,6,7-hexahydro-s-indacen-4-yl)carbamoyl)-4-hydroxy-4-methyl-5,6,7,8-tetrahydro-4H-5,8-methanocyclohepta[b]furan-2-sulfonamide] |
| < 100 | C[C@]1(O)c2cc(S(=O)(=O)NC(=O)Nc3c4c(cc5c3CCC5)CCC4)oc2[C@@H]2CC[C@H]1C2 [Compound 42, (4R,5S,8R)-N-((1,2,3,5,6,7-hexahydro-s-indacen-4-yl)carbamoyl)-4-hydroxy-4-methyl-5,6,7,8-tetrahydro-4H-5,8-methanocyclohepta[b]furan-2-sulfonamide] |
| < 100 | O=C(Nc1c2c(cc3c1CCC3)CCC2)NS(=O)(=O)c1cc2c(o1)C1CCC(CC1)C2=NO [Compound 24, N-((1,2,3,5,6,7-hexahydro-s-indacen-4-yl)carbamoyl)-4-(hydroxyimino)-5,6,7,8-tetrahydro-4H-5,8-ethanocyclohepta[b]furan-2-sulfonamide] |
| 1000 to 10000 | CC(C)c1cccc(C(C)C)c1CC(=O)NS(=O)(=O)c1cc2c(o1)C1CCC(C1)C2O (centres unmarked) [Compound 15, 2-(2,6-diisopropylphenyl)-N-((4-hydroxy-5,6,7,8-tetrahydro-4H-5,8-methanocyclohepta[b]furan-2-yl)sulfonyl)acetamide] |
| 100 to 1000 | CC(C)c1cc(Cl)cc(C(C)C)c1NC(=O)NS(=O)(=O)c1cc2c(o1)C1CCC(C1)C2(C)O (centres unmarked) [Compound 29, N-((4-chloro-2,6-diisopropylphenyl)carbamoyl)-4-hydroxy-4-methyl-5,6,7,8-tetrahydro-4H-5,8-methanocyclohepta[b]furan-2-sulfonamide] |
